Laboratory results reported in ChEMBL document CHEMBL3774310, “Discovery of antitumor anthra[2,3-b]furan-3-carboxamides: Optimization of synthesis and evaluation of antitumor properties” (Eur J Med Chem, 2016).
Active and inactive are the calls of the source. The rule behind the calls is not given here.

system: HeLa; assay: Antiproliferative activity against human HeLa cells after 72 hrs by MTT assay; format: functional, cell-based; settings: not given

SMILES	IC50 [µM]
Cc1oc2c(O)c3c(c(O)c2c1C(=O)NC1CN2CCC1CC2)C(=O)c1ccccc1C3=O (centres undefined)	12
Cc1oc2c(O)c3c(c(O)c2c1C(=O)N1CCNCC1)C(=O)c1ccccc1C3=O	3.1
Cc1oc2c(O)c3c(c(O)c2c1C(=O)N[C@@H]1CCNC1)C(=O)c1ccccc1C3=O	9.5
Cc1oc2c(O)c3c(c(O)c2c1C(=O)N1CCCC(N)C1)C(=O)c1ccccc1C3=O (centres undefined)	1.4
Cc1oc2c(O)c3c(c(O)c2c1C(=O)N1CCC(N)CC1)C(=O)c1ccccc1C3=O	9.7
Cc1oc2c(O)c3c(c(O)c2c1C(=O)N1CCNC(C)C1)C(=O)c1ccccc1C3=O (centres undefined)	0.9
Cc1oc2c(O)c3c(c(O)c2c1C(=O)NC1CCCNC1)C(=O)c1ccccc1C3=O (centres undefined)	3.4
Cc1oc2c(O)c3c(c(O)c2c1C(=O)NC1CCNCC1)C(=O)c1ccccc1C3=O	11
Cc1oc2c(O)c3c(c(O)c2c1C(=O)N1CCN(C)CC1)C(=O)c1ccccc1C3=O	104
Cc1oc2c(O)c3c(c(O)c2c1C(=O)N1CCNCC1C)C(=O)c1ccccc1C3=O (centres undefined)	0.7
Cc1oc2c(O)c3c(c(O)c2c1C(=O)N[C@H]1CCNC1)C(=O)c1ccccc1C3=O	64

system: not listed separately; assay: Antiproliferative activity against human K562/4 cells after 72 hrs by MTT assay; settings: K562/4, 72 h

SMILES	IC50 [µM]
Cc1oc2c(O)c3c(c(O)c2c1C(=O)NC1CN2CCC1CC2)C(=O)c1ccccc1C3=O (centres undefined)	0.65
Cc1oc2c(O)c3c(c(O)c2c1C(=O)N1CCNCC1)C(=O)c1ccccc1C3=O	2.8
Cc1oc2c(O)c3c(c(O)c2c1C(=O)N[C@@H]1CCNC1)C(=O)c1ccccc1C3=O	0.75
Cc1oc2c(O)c3c(c(O)c2c1C(=O)N1CCCC(N)C1)C(=O)c1ccccc1C3=O (centres undefined)	0.7
Cc1oc2c(O)c3c(c(O)c2c1C(=O)N1CCC(N)CC1)C(=O)c1ccccc1C3=O	0.4
Cc1oc2c(O)c3c(c(O)c2c1C(=O)N1CCNC(C)C1)C(=O)c1ccccc1C3=O (centres undefined)	3
Cc1oc2c(O)c3c(c(O)c2c1C(=O)NC1CCCNC1)C(=O)c1ccccc1C3=O (centres undefined)	0.35
Cc1oc2c(O)c3c(c(O)c2c1C(=O)NC1CCNCC1)C(=O)c1ccccc1C3=O	4
O=C1c2ccccc2C(=O)c2c1c(O)c1[nH]cc(CN[C@@H]3CCNC3)c1c2O	0.4
Cc1oc2c(O)c3c(c(O)c2c1C(=O)N1CCN(C)CC1)C(=O)c1ccccc1C3=O	5.9
Cc1oc2c(O)c3c(c(O)c2c1C(=O)N1CCNCC1C)C(=O)c1ccccc1C3=O (centres undefined)	4.8
Cc1oc2c(O)c3c(c(O)c2c1C(=O)N[C@H]1CCNC1)C(=O)c1ccccc1C3=O	0.8

system: K562; assay: Binding affinity to P-gp in human K562 cells assessed as drug accumulation at 1 uM incubated for 1 to 24 hrs by flow cytometry; format: cell-based; settings: not given

SMILES	Activity
COc1cccc2c1C(=O)c1c(O)c3c(c(O)c1C2=O)C[C@@](O)(C(=O)CO)C[C@@H]3O[C@H]1C[C@H](N)[C@H](O)[C@H](C)O1	inactive

system: K562/4; assay: Binding affinity to P-gp in human K562/4 cells assessed as drug accumulation at 1 uM incubated for 1 to 24 hrs by flow cytometry; format: cell-based; settings: not given

SMILES	Activity
COc1cccc2c1C(=O)c1c(O)c3c(c(O)c1C2=O)C[C@@](O)(C(=O)CO)C[C@@H]3O[C@H]1C[C@H](N)[C@H](O)[C@H](C)O1	Active

system: Calf thymus DNA; assay: Binding affinity to calf thymus DNA at 5 uM by fluorescence assay; format: nucleic-acid assay; settings: Bos taurus

SMILES	Activity
COc1cccc2c1C(=O)c1c(O)c3c(c(O)c1C2=O)C[C@@](O)(C(=O)CO)C[C@@H]3O[C@H]1C[C@H](N)[C@H](O)[C@H](C)O1	Active

biological target: T1, DNA topoisomerase 1 (Homo sapiens) (UniProt P11387); assay: Poisoning activity at topoisomerase 1 (unknown origin) using 3'-[32P]dGTP labelled 117bp oligonucleotide assessed as induction of DNA cleavage incubated for 20 mins by SDS-PAGE analysis; settings: not given
T1 sequence (whole entry): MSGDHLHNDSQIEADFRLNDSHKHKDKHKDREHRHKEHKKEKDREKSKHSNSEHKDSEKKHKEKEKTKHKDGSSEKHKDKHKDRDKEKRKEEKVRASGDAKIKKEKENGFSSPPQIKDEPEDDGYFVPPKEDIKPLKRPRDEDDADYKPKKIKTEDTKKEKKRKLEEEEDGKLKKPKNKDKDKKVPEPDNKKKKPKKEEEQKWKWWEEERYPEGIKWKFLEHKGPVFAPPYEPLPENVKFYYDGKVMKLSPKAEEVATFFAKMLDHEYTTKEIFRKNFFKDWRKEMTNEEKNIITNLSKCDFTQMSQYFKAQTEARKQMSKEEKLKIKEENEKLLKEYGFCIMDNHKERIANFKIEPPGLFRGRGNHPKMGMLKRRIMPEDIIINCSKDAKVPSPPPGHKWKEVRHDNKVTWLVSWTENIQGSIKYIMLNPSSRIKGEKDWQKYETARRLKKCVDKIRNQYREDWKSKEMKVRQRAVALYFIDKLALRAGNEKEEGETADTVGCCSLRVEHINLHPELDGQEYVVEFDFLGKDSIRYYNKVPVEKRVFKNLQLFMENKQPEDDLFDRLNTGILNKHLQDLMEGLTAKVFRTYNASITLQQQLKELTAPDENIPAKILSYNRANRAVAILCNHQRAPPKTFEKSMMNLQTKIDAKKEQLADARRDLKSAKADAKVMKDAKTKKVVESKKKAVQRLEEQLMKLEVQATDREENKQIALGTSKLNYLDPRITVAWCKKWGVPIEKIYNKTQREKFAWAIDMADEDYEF

SMILES	Activity
O=C1c2ccccc2C(=O)c2c1c(O)c1[nH]cc(CN[C@@H]3CCNC3)c1c2O	Active

biological target: T1, DNA topoisomerase 1 (Homo sapiens); assay: Poisoning activity at topoisomerase 1 (unknown origin) using 3'-[32P]dGTP labelled 117bp oligonucleotide assessed as induction of DNA cleavage at 1 uM incubated for 20 mins by SDS-PAGE analysis; settings: not given

SMILES	Activity
COc1cc2c3c(n(CCCNCCO)c(=O)c2cc1OC)-c1cc2c(cc1C3=O)OCO2	Active
CC[C@@]1(O)C(=O)OCc2c1cc1n(c2=O)Cc2cc3ccccc3nc2-1	Active

system: L1210; assay: cells; settings: Mus musculus, L1210, 48 h
Description: Antiproliferative activity against mouse L1210 cells after 48 hrs by MTT assay

SMILES	IC50 [µM]
Cc1oc2c(O)c3c(c(O)c2c1C(=O)NC1CN2CCC1CC2)C(=O)c1ccccc1C3=O (centres undefined)	2.4
Cc1oc2c(O)c3c(c(O)c2c1C(=O)N1CCNCC1)C(=O)c1ccccc1C3=O	4.1
Cc1oc2c(O)c3c(c(O)c2c1C(=O)N[C@@H]1CCNC1)C(=O)c1ccccc1C3=O	5.4
Cc1oc2c(O)c3c(c(O)c2c1C(=O)N1CCCC(N)C1)C(=O)c1ccccc1C3=O (centres undefined)	5.6
Cc1oc2c(O)c3c(c(O)c2c1C(=O)N1CCC(N)CC1)C(=O)c1ccccc1C3=O	13
Cc1oc2c(O)c3c(c(O)c2c1C(=O)N1CCNC(C)C1)C(=O)c1ccccc1C3=O (centres undefined)	3.7
Cc1oc2c(O)c3c(c(O)c2c1C(=O)NC1CCCNC1)C(=O)c1ccccc1C3=O (centres undefined)	3
Cc1oc2c(O)c3c(c(O)c2c1C(=O)NC1CCNCC1)C(=O)c1ccccc1C3=O	5.1
O=C1c2ccccc2C(=O)c2c1c(O)c1[nH]cc(CN[C@@H]3CCNC3)c1c2O	0.07
Cc1oc2c(O)c3c(c(O)c2c1C(=O)N1CCN(C)CC1)C(=O)c1ccccc1C3=O	82
Cc1oc2c(O)c3c(c(O)c2c1C(=O)N1CCNCC1C)C(=O)c1ccccc1C3=O (centres undefined)	3.7
Cc1oc2c(O)c3c(c(O)c2c1C(=O)N[C@H]1CCNC1)C(=O)c1ccccc1C3=O	6.5

system: K562; assay: cells; settings: Homo sapiens, K562, 72 h
Description: Antiproliferative activity against human K562 cells after 72 hrs by MTT assay

SMILES	IC50 [µM]
Cc1oc2c(O)c3c(c(O)c2c1C(=O)NC1CN2CCC1CC2)C(=O)c1ccccc1C3=O (centres undefined)	0.6
Cc1oc2c(O)c3c(c(O)c2c1C(=O)N1CCNCC1)C(=O)c1ccccc1C3=O	1.3
Cc1oc2c(O)c3c(c(O)c2c1C(=O)N[C@@H]1CCNC1)C(=O)c1ccccc1C3=O	0.7
Cc1oc2c(O)c3c(c(O)c2c1C(=O)N1CCCC(N)C1)C(=O)c1ccccc1C3=O (centres undefined)	0.85
Cc1oc2c(O)c3c(c(O)c2c1C(=O)N1CCC(N)CC1)C(=O)c1ccccc1C3=O	2.1
Cc1oc2c(O)c3c(c(O)c2c1C(=O)N1CCNC(C)C1)C(=O)c1ccccc1C3=O (centres undefined)	0.9
Cc1oc2c(O)c3c(c(O)c2c1C(=O)NC1CCCNC1)C(=O)c1ccccc1C3=O (centres undefined)	0.6
Cc1oc2c(O)c3c(c(O)c2c1C(=O)NC1CCNCC1)C(=O)c1ccccc1C3=O	2.7
Cc1oc2c(O)c3c(c(O)c2c1C(=O)N1CCN(C)CC1)C(=O)c1ccccc1C3=O	1.6
Cc1oc2c(O)c3c(c(O)c2c1C(=O)N1CCNCC1C)C(=O)c1ccccc1C3=O (centres undefined)	1.1
Cc1oc2c(O)c3c(c(O)c2c1C(=O)N[C@H]1CCNC1)C(=O)c1ccccc1C3=O	0.75

system: not listed separately; assay: cells; settings: Homo sapiens, HCT-116, 72 h
Description: Antiproliferative activity against human HCT116 cells after 72 hrs by MTT assay

SMILES	IC50 [µM]
Cc1oc2c(O)c3c(c(O)c2c1C(=O)NC1CN2CCC1CC2)C(=O)c1ccccc1C3=O (centres undefined)	0.9
Cc1oc2c(O)c3c(c(O)c2c1C(=O)N1CCNCC1)C(=O)c1ccccc1C3=O	2.3
Cc1oc2c(O)c3c(c(O)c2c1C(=O)N[C@@H]1CCNC1)C(=O)c1ccccc1C3=O	0.3
Cc1oc2c(O)c3c(c(O)c2c1C(=O)N1CCCC(N)C1)C(=O)c1ccccc1C3=O (centres undefined)	1.5
Cc1oc2c(O)c3c(c(O)c2c1C(=O)N1CCC(N)CC1)C(=O)c1ccccc1C3=O	2
Cc1oc2c(O)c3c(c(O)c2c1C(=O)N1CCNC(C)C1)C(=O)c1ccccc1C3=O (centres undefined)	1.3
Cc1oc2c(O)c3c(c(O)c2c1C(=O)NC1CCCNC1)C(=O)c1ccccc1C3=O (centres undefined)	1.6
Cc1oc2c(O)c3c(c(O)c2c1C(=O)NC1CCNCC1)C(=O)c1ccccc1C3=O	1.2
O=C1c2ccccc2C(=O)c2c1c(O)c1[nH]cc(CN[C@@H]3CCNC3)c1c2O	1.6
Cc1oc2c(O)c3c(c(O)c2c1C(=O)N1CCN(C)CC1)C(=O)c1ccccc1C3=O	11.5
Cc1oc2c(O)c3c(c(O)c2c1C(=O)N1CCNCC1C)C(=O)c1ccccc1C3=O (centres undefined)	1.6
Cc1oc2c(O)c3c(c(O)c2c1C(=O)N[C@H]1CCNC1)C(=O)c1ccccc1C3=O	0.25
